This note sets out measurements from patent publication US7462733B2, “Preparation and use of α-keto phosphonates” (University of Southern California, priority 2001, dated 2008).

Structures are written as SMILES.

The series in a line: pH dependence of ketone-hydrate equilibrium (31P NMR, absorbance 420 nm). The class given is physicochemical. From the text:
The ketone 13a and hydrate forms 13b are simultaneously detectable by ^31P, and also via the visible absorbance (420 nm) of the ketone chromophore (yellow). At low pH, the hydrate form 13b predominates, the phosphorus NMR peak shifting from −2 to 15 ppm. The reaction is reversible, the ketone reforming as the pH is increased. The pH at which 50% of the ketone is transferred to its hydrate form (‘pK’) is 2.2 (rt, 10^−7M in D2O). This unequivocally coincides with the protonation of the phosphonate function. Upon addition of MgCl2, the apparent ‘pK’ of the equilibrium shifts by nearly 2 pH units towards left to reach 4.2 (FIG. 4).
We, report here synthesis and characterization of the first example of a new class of nucleotide analog, in which the α,β-phosphoric anhydride oxygen of the 5′-diphosphate moiety is replaced by a reactive carbonyl group: the carbonylbisphosphonate analog of 3′-azido-3′desoxythymidine 5′-diphosphate, 13. The structures of 13 and its diazomethylenebisphosphonate precursor 12 were confirmed by ^1H, ^13C and ^31P NMR, and high-resolution mass spectrometry. The ketone and hydrate forms of 13 are simultaneously detectable by ^31P, and also via the visible absorbance (420 nm) of the ketone chromophore. At low pH, the hydrate form predominates, the phosphorus NMR peak shifting from −2 to 15 ppm. The reaction is reversible, the ketone reforming as the pH is increased. Addition of Mg^2+ shifts the ‘pK’ of the equilibrium by nearly 2 pH units. (See FIG. 4).

For the molecule `Cc1cn([C@H]2C[C@H](N=[N+]=[N-])[C@@H](COP(=O)(O)C(=O)P(=O)(O)O)O2)c(=O)[nH]c1=O` [Compound 13a, 3′-Azido-3′-Deoxythymidine 5′-Carbonylbisphosphonate], the “shift of the 'pK' of the equilibrium on addition of Mg2+” value (addition of MgCl2 / Mg^2+) is recorded as roughly 2 pH units. Further, the “pH at which 50% of the ketone is transferred to its hydrate form ('pK')” value (rt, 10^−7M in D2O, no Mg) amounted to 2.2. Where the note is “upon addition of MgCl2”, the “apparent 'pK' of the ketone-hydrate equilibrium” value amounted to 4.2.
